Results on 9 compounds are retold here after patent US11059842B2, “Monosaccharide amine and 3-nitro-2-phenyl-2H-chromene based inhibitors of glucose kinases” (UNIVERSITY OF SOUTH CAROLINA, priority 2019, dated 2021).

Several values for one entry are separate records, joined by “and”; a condition that tells them apart may be missing. Equal values may be shown once. Read-outs that look alike come from different tables or passages of the source.

The target in experiment [1] is T1, TcGlcK (Trypanosoma cruzi (strain CL Brener), UniProt Q4E4E1). The experiment in a line: TcGlcK Michaelis-Menten kinetics and substrate range. In kind it is biochemical. The following applies: substrate; triplicate runs. How it is done:
(§1) D-Glucose was also tested as a control with alternative substrates. The protein expression work for TcGlcK and HsHxKIV were each made possible through the E. coli strain BL21(DE3) system. Purification of each enzyme was performed through cobalt-NTA chromatography followed by size-exclusion chromatography; assessment of purity was performed by SDS-PAGE. In enzymatic assays, a time-optimum (TOPT) was determined to be 120 seconds for TcGlcK and 600 seconds for HsHxKIV; all assays were run at room temperature. A general reaction scheme included a first reaction in which the monosaccharide, ATP, and Mg^2+ react with the enzyme, e.g., TcGlcK, forming a hexose-phosphate and ADP. In a second reaction, hexose-phosphate with the assistance of glucose-6-phosphate dehydrogenase (G6PDH) and NADP^+ was converted to the lactone form of the hexose-phosphate and NADPH. Fluorescence of NADPH was monitored using a fluorescence microplate reader with […] wavelengths of 340 nm and 485 nm, respectively.
(§2) FIG. 4 and FIG. 5 present typical Michaelis-Menten enzyme kinetic plots for D-glucose. As shown, the NADP^+ to NADPH turnover rate is a function of [D-glucose] & [ATP] for TcGlcK (FIG. 4) and HsHxKIV (FIG. 5) absent inhibition. Michaelis-Menten constant (KM) values, which were used as the set final assay concentrations of substrates D-glucose and ATP for the primary screens, were determined for both TcGlcK and HsHxKIV in triplicate runs. The KM values for TcGlcK with respect to D-glucose and ATP were 0.40 mM and 0.34 mM, respectively. The KM values for HsHxKIV with respect to D-glucose and ATP were 43 mM and 0.20 mM, respectively.
All phosphorylated hexoses were shown getting converted into their corresponding products by G6PDH, in abundant quantities through a 30-second time frame. This permitted the standard TcGlcK […] assay, which was timed for […], to be used as an assay to analyze alternative substrates.

Experiment [2] concerns the target T2, HsHxKIV (Homo sapiens (Human), UniProt P35557). Nature of the experiment: HsHxKIV Michaelis-Menten kinetics. The class given is biochemical. The conditions noted are these: substrate; triplicate runs. How it is done: as §1
FIG. 4 and FIG. 5 present typical Michaelis-Menten enzyme kinetic plots for D-glucose. […] Michaelis-Menten constant (KM) values, which were used as the set final assay concentrations of substrates D-glucose and ATP for the primary screens, were determined for both TcGlcK and HsHxKIV in triplicate runs. […]

Experiment [3] deals with Trypanosoma cruzi glucokinase (TcGlcK) (Trypanosoma cruzi (strain CL Brener), UniProt Q4E4E1). The class given is biochemical. The conditions noted are these: for TcGlcK Inh20 (%): percentage of inhibition at 20 μM of the compound, N = 1. How it is done: as §1, with “In enzymatic assays, a time-optimum (TOPT) was determined to be 120 seconds for TcGlcK and 600 seconds for HsHxKIV; all assays were run at room temperature.” left out
Michaelis-Menten constant (KM) values, which were used as the set final assay concentrations of substrates D-glucose and ATP for the primary screens, were determined for both TcGlcK and HsHxKIV in triplicate runs. […]
The cutoff percentage was calculated by using normalized percent inhibition that took into consideration the positive and negative controls of the fluorescence readout from a fluorescence microplate reader. In addition, an unconfirmed hit was selected if the activity measurement was three standard deviations away from the mean of the positive controls.

Experiment [4] concerns the target T1, TcGlcK. The experiment in a line: Primary assay screen of TcGlcK, normalized percent inhibition (Example 2). In kind it is biochemical. The conditions noted are these: triplicate. On the procedure:
(§3) Primary assay screens of TcGlcK, LbGlcK, and HsHxKIV against the 3-nitro-2-phenyl-2H-chromene-based inhibitors compound nos. 19-22 were carried out. Compound 1, Benzoyl glucosamine (BENZ-GlcN or simply “BENZ”) and carboxybenzyl glucosamine (CBZ-GlcN or simply “CBZ”) were both used as controls due to their known inhibition against TcGlcK. LbGlcK was chosen to be tested against these compounds due to its 44% protein sequence similarity to TcGlcK.
(§4) All screens were done in triplicate and were analyzed using normalized percent inhibition (NPI) calculations. NPI calculations rely on positive and negative assay controls within the screen to account for any fluctuations in the fluorescence measurements.
(§5) The NPI for a compound to be considered a “hit” against TcGlcK required a value exceeding 60.5% inhibition in the primary screen. All four compounds ([…]) qualified as hits based off of this parameter. LbGlcK required compounds to be above 12.6% inhibition in its primary screen; all four compounds were also qualified as hits.

Experiment [5] deals with T2, HsHxKIV. Nature of the experiment: Primary assay screen of HsHxKIV, normalized percent inhibition (Example 2). In kind it is biochemical. The following applies: triplicate. How it is done:
as §3, §4, §5

Experiment [6] deals with glucose-6-phosphate dehydrogenase (G6PDH). The experiment in a line: G6PDH confirmatory assay (coupling enzyme counter-screen). The following applies: 20 μM compound; quadruplicate. The class given is biochemical. On the procedure:
The 16 compounds showing substantial inhibition against TcGlcK at compound concentrations of 20 μM were then examined in a confirmatory assay in which the amino sugar analogues were at a concentration of 20 μM and were tested against the assay's only coupling enzyme, G6PDH, to verify enzyme activity; the assay was performed in quadruplicate. […] These confirmed hits included representatives from all three monosaccharide scaffolds tested (i.e., D-GlcN, D-ManN, and D-GalN).

In experiment [7] the target is Homo sapiens hexokinase IV (HsHxKIV) (Homo sapiens (Human), UniProt P35557). The experiment in a line: HsHxKIV enzyme-inhibition screening assay (Example 1). In kind it is biochemical. The following applies: 20 μM compound; N = 1. On the procedure:
as §1, §2

The target of experiment [8] is T1, TcGlcK. The class given is biochemical. How it is done: as §1, with “In enzymatic assays, a time-optimum (TOPT) was determined to be 120 seconds for TcGlcK and 600 seconds for HsHxKIV; all assays were run at room temperature.” left out
Experiment [9] has as its system Leishmania braziliensis glucokinase (LbGlcK). The experiment in a line: Primary assay screen of LbGlcK, normalized percent inhibition (Example 2). The following applies: triplicate. The class given is biochemical. On the procedure:
as §3, §4, §5

The target in experiment [10] is T1, TcGlcK. The conditions noted are these: from D'Antonio, et al (2015); cited from earlier work.
In experiment [11] the test system is T. cruzi (Tulahuen strain) infective form (trypomastigote and amastigote life stages) co-cultured in NIH-3T3 fibroblasts. The experiment in a line: T. cruzi infective form growth inhibition in NIH-3T3 fibroblasts. The class given is cell-based, Trypanosoma cruzi. The following applies: Tulahuen strain infective form in NIH-3T3 fibroblasts; N = 3 (Amphotericin B control: 6 replicates). On the procedure: The curve and the IC50 were calculated from measurements determined in triplicate and expressed as percent growth inhibition of the T. cruzi parasite infection of mammalian cells.
Compounds were further screened against the T. cruzi (Tulahuen strain) infective form (trypomastigote and amastigote life stages) co-cultured in NIH-3T3 fibroblasts to establish IC50 values. Assays were performed in triplicate.
The single dose in vitro study included administration of the compounds in 80 μM inhibitor concentrations (N=3). Amphotericin B was used as a control.

A further experiment has as its system T. brucei. The experiment in a line: T. brucei in vitro screen. In kind it is cell-based. The following applies: Trypanosoma brucei; average; concentrations up to 10 μM, N=3. On the procedure: Compounds 19-31 were screened against T. brucei. The single dose in vitro study included administration of the compounds in increasing concentrations up to 10 μM (N=3 for each compound concentration value). Media and T. bricei+0.5% SDS were used as control.

Experiment [12] deals with T. cruzi (Tulahuen strain) infective form (trypomastigote and amastigote life stages) co-cultured in NIH-3T3 fibroblasts. The conditions noted are these: literature / previously measured values; infective form in NIH-3T3 fibroblasts; cited from earlier work.

T1 sequence (Q4E4E1 1-376): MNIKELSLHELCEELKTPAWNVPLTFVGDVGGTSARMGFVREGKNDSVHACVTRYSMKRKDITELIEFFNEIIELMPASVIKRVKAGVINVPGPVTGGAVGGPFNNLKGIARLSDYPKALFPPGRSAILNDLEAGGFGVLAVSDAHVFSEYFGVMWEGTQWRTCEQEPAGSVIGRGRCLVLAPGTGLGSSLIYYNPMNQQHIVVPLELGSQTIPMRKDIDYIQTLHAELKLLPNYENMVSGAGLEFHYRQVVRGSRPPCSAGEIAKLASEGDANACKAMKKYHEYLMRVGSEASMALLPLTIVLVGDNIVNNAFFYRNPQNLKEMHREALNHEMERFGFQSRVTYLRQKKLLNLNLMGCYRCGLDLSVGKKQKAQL
Sequence of Trypanosoma cruzi glucokinase (TcGlcK) (Q4E4E1 1-376): as above
T2 sequence (P35557 whole entry): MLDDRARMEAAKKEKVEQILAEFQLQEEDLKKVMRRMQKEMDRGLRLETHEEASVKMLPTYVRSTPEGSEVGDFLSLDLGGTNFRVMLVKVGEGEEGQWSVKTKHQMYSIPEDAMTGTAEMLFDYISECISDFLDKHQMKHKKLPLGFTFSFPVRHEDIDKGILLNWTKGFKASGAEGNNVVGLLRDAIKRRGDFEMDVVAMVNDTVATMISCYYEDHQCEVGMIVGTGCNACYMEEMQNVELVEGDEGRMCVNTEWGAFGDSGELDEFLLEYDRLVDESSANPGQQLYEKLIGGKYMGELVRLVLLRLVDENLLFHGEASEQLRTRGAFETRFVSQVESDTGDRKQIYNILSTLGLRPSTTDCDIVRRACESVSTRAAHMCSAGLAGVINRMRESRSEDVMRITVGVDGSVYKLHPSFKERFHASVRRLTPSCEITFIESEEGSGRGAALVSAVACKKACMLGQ
Sequence of Homo sapiens hexokinase IV (HsHxKIV) (P35557 whole entry): as above

Take `Nc1ncnc2c1ncn2[C@@H]1O[C@H](COP(=O)(O)OP(=O)(O)OP(=O)(O)O)[C@@H](O)[C@H]1O` [ATP]: the Km amounted to 340 µM at TcGlcK [1] and 200 µM at HsHxKIV [2].
Regarding `O=C(NC1C(O)OC(CO)C(O)C1O)OCc1ccccc1` (stereo not shown) [CBZ-GlcN, carboxybenzyl glucosamine, reference compound], the “TcGlcK Inh20 (%)” value in experiment [3] amounted to 92%. Further, the “NPI (%) TcGlcK” value at TcGlcK [4] amounted to 100%. Moreover, the “NPI (%) HsHxKIV” value on HsHxKIV [5] is 15.0%.
As for `O=C(N[C@H]1C(O)O[C@H](CO)[C@@H](O)[C@@H]1O)c1ccccc1` (stereo partly shown) [Compound 1, Benzoyl glucosamine], in [3] (higher values indicate more selective towards TcGlcK), the “TcGlcK Inh20:HsHxKIV Inh20 ratio” value stood at 1.65. Also, the “TcGlcK Inh20 (%)” value in experiment [3] was 65% and 64.7%. Also, the “G6PDH Inh20 (%)” value in experiment [6] worked out at 0.5 ± 1.0%. The “HsHxKIV Inh20(%)” value in experiment [7] is 39%. The “Ki stronger than compound 5 by magnitude” value on TcGlcK [8] (relative to compound 5) was found to be 4.3 fold. In addition, the “NPI (%) TcGlcK” value at TcGlcK [4] is 100%. For the same compound, the “NPI (%) LbGlcK” value in experiment [9] worked out at 27.2%. Further, on HsHxKIV [5], the “NPI (%) HsHxKIV” value is on record as 9.30%. In addition, the inhibitory constant (Ki) on TcGlcK [10] is 32 µM.
As to `O=C(N[C@H]1C(O)O[C@H](CO)[C@@H](O)[C@@H]1O)c1cc2ccccc2o1` (stereo partly shown) [Compound 5], in experiment [3], the “TcGlcK Inh20 (%)” value was 31% and 31.2%. The “G6PDH Inh20 (%)” value in [6] stood at 0.0 ± 0.0%. For the same compound, the “HsHxKIV Inh20(%)” value in [7] is reported as 25%. For the same compound, in experiment [11], inhibition was half-maximal at 27.2 µM (IC50). At TcGlcK [8], the “mode of TcGlcK inhibition” value was “competitive inhibition”. The same compound registered an inhibition constant (Ki) at TcGlcK [8] (N = 3) of 139 ± 35 µM.
Regarding `O=[N+]([O-])C1=Cc2cc(Br)cc(Br)c2O[C@H]1c1c(Cl)cccc1Cl` [Compound 19], the “NPI (%) TcGlcK” value on TcGlcK [4] is recorded as 62.3%. Besides, the “NPI (%) HsHxKIV” value on HsHxKIV [5] is 82.1%. Besides, the IC50 in the experiment on T. brucei turned out to be 0.902 µM.
On to `O=[N+]([O-])C1=Cc2cc(Br)ccc2O[C@H]1c1ccccc1Cl` [Compound 20], for which the “NPI (%) TcGlcK” value at TcGlcK [4] worked out at 89.5%. The “NPI (%) HsHxKIV” value on HsHxKIV [5] was 64.7%. The compound further came in with an IC50 in the experiment on T. brucei of 0.862 µM.
For the compound `O=[N+]([O-])C1=Cc2ccccc2O[C@H]1c1ccccc1Cl` [Compound 21], the “NPI (%) TcGlcK” value on TcGlcK [4] is 54.7%. The “NPI (%) HsHxKIV” value at HsHxKIV [5] was determined as 51.8%.
On to `O=[N+]([O-])C1=Cc2ccccc2O[C@H]1c1c(Cl)cccc1Cl` [Compound 22], for which, at TcGlcK [4], the “NPI (%) TcGlcK” value was found to be 69.5%. Further, the “NPI (%) HsHxKIV” value at HsHxKIV [5] is 66.0%.
As to `O=C(Cn1ccnc1[N+](=O)[O-])NCc1ccccc1` [benznidazole], in [12], the IC50 is 1.12 ± 0.01 µM.
